According to patent US9505735B2, “Compounds for treating infectious diseases” (Whitehead Institute for Biomedical Research, priority 2012, dated 2016):

What was measured:
[1] = tested on: S. cerevisiae strains deleted for IRE1 or HAC1; assay: Antifungal susceptibility testing of UPR-deficient strains; assay type: cell-based; conditions: 48 hour
Protocol: (A) Immunoblots of lysates prepared from S. cerevisiae treated with gepinacin showing GPI-anchor-selective impairment of protein maturation. The unprocessed (u), precursor (p), and mature (m) forms of the reporter proteins are indicated. The identity of the tagged reporter proteins (top of panel) and the antibodies used for their detection (bottom of panel) are also indicated. Treatment conditions are DMSO (0.05%), gepinacin (GPN, 10 μM) or tunicamycin (Tun, 10 μM). The same lysate was used for both blots. […] GFP expression was monitored by flow cytometry. (C) Anti-fungal susceptibility testing of strains deleted for IRE1 (activator of the UPR) or HAC1 (effector of the UPR) showing their increased sensitivity to gepinacin.
Anti-fungal susceptibility testing of strains bearing deletion of IRE1 (activator of the UPR) or HAC1 (effector of the UPR) using either […] (A) or fluconazole (B). Growth was measured by OD600 after 48 hour exposure to serial dilutions of the compounds as indicated. Results are expressed as a fraction of the OD600 measured in the absence of gepinacin. The mean and standard deviation of triplicate determinations are shown.

[2] = tested on: Emp24-GFP; assay: Emp24-GFP distribution (microscopy); assay type: cell-based, S. cerevisiae; conditions: 5 μM, overnight
Protocol: (A) Anti-fungal susceptibility testing of gepinacin using suppressor strains 20-1 and 20-2. (B) The sequence of EMP24 in S. cerevisiae is shown with the location of mutations found by whole genome sequencing in the suppressor strains 20-1 and 20-2 indicated. The sequence in FIG. 4B corresponds to SEQ ID NO: 1. (C) Micrographs showing the redistribution of Emp24-GFP after overnight incubation with 5 μM gepinacin. Green fluorescence and DIC images are merged in the lower panels. Scale bar; 5 μm.
To determine if gepinacin does indeed alter trafficking and change Emp24 distribution yeast in which GFP was fused in frame to the 3′ end of genomic EMP24 were examined.

[3] = tested on: S. cerevisiae strains with graded levels of Gwt1 expression; assay: Antifungal susceptibility testing of strains with graded GWT1 copy number; assay type: cell-based
Text: (A) Anti-fungal susceptibility testing of S. cerevisiae strains with graded levels of Gwt1 expression treated with gepinacin. Wild type diploids (Wt) or diploids with one copy of GWT1 deleted (gwt1/GWT1) were transformed with low copy (CEN) plasmids encoding GWT1 or GFP (as a control). (B) Schematic of Gwt1 protein function in cells. Glucosamine (shown as a black circle) phosphatidyl inositol (GlcN-PI) is acylated (orange zigzag) by Gwt1 to become GlcN-(acyl)PI.
Anti-fungal susceptibility testing of wild type diploids (Wt) or diploids with one copy of GWT1 deleted (gwt1Δ/GWT1) transformed with high copy (2 micron) plasmids containing GWT1 or GFP (as a control). The strains were treated with gepinacin for 48 hours and the growth was monitored by measuring the optical density at 600 nm (OD600). The results are expressed as a fraction of the OD600 measured in the absence of gepinacin.
To determine the mechanism responsible for the antifungal activity of the compound, the powerful genetic tools available in the model fungal organism S. cerevisiae were utilized. Both an arrayed haploid over-expression library and a pooled heterozygous deletion library were screened for enhancement or suppression of toxicity. […] With each strain expressing one open reading frame (ORF), this library covered approximately 90% of the yeast genome. […]

[4] = tested on: C. albicans Sc5314 cell surface β-glucan; assay: β-Glucan staining (microscopy, flow cytometry); assay type: cell-based
Protocol: Overnight treatment and staining of C. albicans strain Sc5314 was performed as previously described for caspofungin treatment using YPD media at 30° C. to maintain growth in the yeast form (Wheeler, et al. (2006) PLoS Pathog 2, e35). Antibody to (1-3) β-D-glucan was obtained from Biosupplies (Australia). Cells were propidium iodide (PI) stained to assess viability and only PI-negative cells were analyzed. Microscopy was performed on a Nikon Eclipse microscope with a 100× oil objective.

[5] = tested on: unfolded protein response; assay: Unfolded protein response GFP reporter (UPRE-GFP), flow cytometry; assay type: cell-based, S. cerevisiae; conditions: 5 hours
Protocol: Induction of the unfolded protein response in cells carrying a GFP reporter construct was monitored by flow cytometry after exposure to serial dilutions of the indicated compounds for 5 hrs.
The plasmid pRS304-4XUPRE-GFP was linearized and integrated into the TRP1 locus of S. cerevisiae (W303) to construct a reporter strain as previously described (Cox, et al. (1993) Cell 73, 1197-1206; Pollard, et al. (1998) Mol Cell 1, 171-182). Reporter cells were grown to log phase and exposed to compound at 23° C. for 5 hours before analysis. GFP reporter induction was monitored on a Guava EasyCyte Plus cytometer. The average mean channel fluorescence of duplicate samples was determined, and the experiment was performed twice with similar results.

`COc1ccc(NC(=O)COc2cccc(OCC(C)C)c2)cc1` [gepinacin] was tested, and the “change of toxicity by deletion of HAC1 or IRE1” value [1] was “greatly increased the toxicity”, the Emp24-GFP localisation [2] was “dramatically re-localized into large, bright dotlike structures” and the “toxicity versus GWT1 copy number” value [3] was “inversely correlated with GWT1 copy number”. For the same compound, the “increase in median channel fluorescence (β-glucan, flow cytometry) versus control” value [4] was 4.5 fold, the “β-glucan presentation on the cell surface (immunostaining)” value ([4]; sub-lethal concentrations (5 μM)) was “dramatically increase” and the “activation of the unfolded protein response (GFP reporter)” value [5] was “massive, concentration-dependent activation”.
